Where two headings read alike, the source gives them in different places.

What all share (experiment): Cysteine liganding, probe competition
Common to all, as to assay type: binding

The target of one experiment is T1, UniProt Q8WV44 (Homo sapiens, UniProt Q8WV44).
T1 construct: 200 μL of lysate containing 5 mg/ml proteome was treated with 2 μL of 100× compound stock; endogenous in cells
T1 sequence (Q8WV44 1-630): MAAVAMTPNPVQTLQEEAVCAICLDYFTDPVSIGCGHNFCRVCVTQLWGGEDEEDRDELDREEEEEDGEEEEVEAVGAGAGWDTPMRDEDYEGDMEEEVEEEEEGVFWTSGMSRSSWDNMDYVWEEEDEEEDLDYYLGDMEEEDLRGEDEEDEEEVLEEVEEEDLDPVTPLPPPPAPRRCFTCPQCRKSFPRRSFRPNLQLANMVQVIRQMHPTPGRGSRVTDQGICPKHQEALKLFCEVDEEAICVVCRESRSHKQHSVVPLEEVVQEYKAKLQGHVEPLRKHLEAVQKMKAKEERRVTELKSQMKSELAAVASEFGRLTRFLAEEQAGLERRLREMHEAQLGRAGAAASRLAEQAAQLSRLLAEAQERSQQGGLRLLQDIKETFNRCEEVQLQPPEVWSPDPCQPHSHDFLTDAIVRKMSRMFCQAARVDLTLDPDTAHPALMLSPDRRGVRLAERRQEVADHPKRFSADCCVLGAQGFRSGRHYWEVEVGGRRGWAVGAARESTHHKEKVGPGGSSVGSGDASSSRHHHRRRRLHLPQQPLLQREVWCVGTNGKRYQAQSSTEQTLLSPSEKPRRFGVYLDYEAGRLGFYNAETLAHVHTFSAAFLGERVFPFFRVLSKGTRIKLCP
The text has this:
(§1) The following 96-well sample prep protocol was used for sample preparation.

The next experiment addresses T2, UniProt Q3KNV8 (Homo sapiens, UniProt Q3KNV8).
T2 construct: Cells were resuspended in cold PBS on ice and sonicated with a probe sonicator to achieve lysis; endogenous in cells
T2 sequence (Q3KNV8 1-242): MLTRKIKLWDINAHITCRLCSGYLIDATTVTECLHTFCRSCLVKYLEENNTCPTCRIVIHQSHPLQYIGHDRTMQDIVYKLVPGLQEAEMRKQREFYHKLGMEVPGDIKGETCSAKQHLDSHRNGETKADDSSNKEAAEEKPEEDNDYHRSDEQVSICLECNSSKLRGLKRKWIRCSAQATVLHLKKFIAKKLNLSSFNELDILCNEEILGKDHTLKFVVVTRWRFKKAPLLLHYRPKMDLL
Excerpt: as §1

The next experiment deals with T3, UniProt O15524 (Homo sapiens, UniProt O15524).
T3 construct: 200 μL of lysate containing 5 mg/ml proteome was treated with 2 μL of 100× compound stock; endogenous in cells
T3 sequence (O15524 1-211): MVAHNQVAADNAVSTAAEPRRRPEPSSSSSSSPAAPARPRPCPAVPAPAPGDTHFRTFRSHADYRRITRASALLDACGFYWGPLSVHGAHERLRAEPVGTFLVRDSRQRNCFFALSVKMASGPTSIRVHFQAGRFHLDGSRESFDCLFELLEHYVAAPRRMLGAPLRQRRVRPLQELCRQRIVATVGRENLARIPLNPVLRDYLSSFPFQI
The note with it: for inhibition at 500 µM: read-out: percent_inhibition.
Excerpt: as §1

Another experiment addresses T4, UniProt Q9BUL5 (Homo sapiens, UniProt Q9BUL5).
T4 construct: 200 μL of lysate containing 5 mg/ml proteome was treated with 2 μL of 100× compound stock; endogenous in cells
Excerpt: as §1

The next experiment deals with T5, UniProt Q96G25 (Homo sapiens, UniProt Q96G25).
T5 construct: Cells were resuspended in cold PBS on ice and sonicated with a probe sonicator to achieve lysis; endogenous in cells
T5 sequence (Q96G25 1-268): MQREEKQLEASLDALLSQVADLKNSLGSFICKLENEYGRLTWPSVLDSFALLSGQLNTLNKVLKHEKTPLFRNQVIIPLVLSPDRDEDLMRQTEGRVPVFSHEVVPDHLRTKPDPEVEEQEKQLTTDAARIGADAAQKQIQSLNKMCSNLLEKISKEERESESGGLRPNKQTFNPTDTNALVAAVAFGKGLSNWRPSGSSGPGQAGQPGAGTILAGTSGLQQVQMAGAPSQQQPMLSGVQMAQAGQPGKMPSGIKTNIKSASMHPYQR
Excerpt: as §1

The target of a further experiment is T6, UniProt Q9Y252 (Homo sapiens, UniProt Q9Y252).
T6 construct: 200 μL of lysate containing 5 mg/ml proteome was treated with 2 μL of 100× compound stock; endogenous in cells
T6 sequence (Q9Y252 1-685): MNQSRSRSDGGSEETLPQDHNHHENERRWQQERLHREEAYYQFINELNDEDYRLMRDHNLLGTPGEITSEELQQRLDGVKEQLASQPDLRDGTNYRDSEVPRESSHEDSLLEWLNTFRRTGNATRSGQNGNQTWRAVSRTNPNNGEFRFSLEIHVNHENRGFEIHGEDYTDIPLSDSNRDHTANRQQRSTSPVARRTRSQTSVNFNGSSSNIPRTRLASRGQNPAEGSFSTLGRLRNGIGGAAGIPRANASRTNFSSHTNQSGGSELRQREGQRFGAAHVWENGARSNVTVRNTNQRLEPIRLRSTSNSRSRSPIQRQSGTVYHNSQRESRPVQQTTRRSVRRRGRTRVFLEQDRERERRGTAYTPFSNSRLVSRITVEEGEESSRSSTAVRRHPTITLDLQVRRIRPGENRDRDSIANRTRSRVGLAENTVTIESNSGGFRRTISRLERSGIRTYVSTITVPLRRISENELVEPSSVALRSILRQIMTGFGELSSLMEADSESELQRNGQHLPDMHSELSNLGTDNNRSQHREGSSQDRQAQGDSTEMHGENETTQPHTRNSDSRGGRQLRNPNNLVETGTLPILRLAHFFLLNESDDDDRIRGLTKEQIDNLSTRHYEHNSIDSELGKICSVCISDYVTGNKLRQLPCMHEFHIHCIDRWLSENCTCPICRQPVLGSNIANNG
The note with it: for inhibition at 500 µM: read-out: percent_inhibition.
Excerpt: as §1

Another experiment concerns the target T7, UniProt Q86WC4 (Homo sapiens, UniProt Q86WC4).
T7 construct: Cells were resuspended in cold PBS on ice and sonicated with a probe sonicator to achieve lysis; endogenous in cells
T7 sequence (Q86WC4 32-334): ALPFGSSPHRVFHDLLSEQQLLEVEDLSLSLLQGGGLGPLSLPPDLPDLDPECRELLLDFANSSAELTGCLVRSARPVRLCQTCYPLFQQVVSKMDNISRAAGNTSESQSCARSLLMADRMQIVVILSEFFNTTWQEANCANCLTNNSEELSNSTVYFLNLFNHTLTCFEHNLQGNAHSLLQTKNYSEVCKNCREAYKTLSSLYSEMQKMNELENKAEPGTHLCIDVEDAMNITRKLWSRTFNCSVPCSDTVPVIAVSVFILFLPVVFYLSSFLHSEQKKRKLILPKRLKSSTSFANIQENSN
Excerpt: as §1

[1] abbreviates: 100 uM, read-out: KB02_100 uM_percent_inhibition.
Setting [2] is: 100 uM, read-out: percent inhibition.
The mark [3] stands for this setting: 500 uM, read-out: KB05_500 uM_percent_inhibition.
Setting [4] is: 100 uM, read-out: KB05_100 uM_percent_inhibition.

T4 sequence (Q9BUL5 whole entry, change not shown): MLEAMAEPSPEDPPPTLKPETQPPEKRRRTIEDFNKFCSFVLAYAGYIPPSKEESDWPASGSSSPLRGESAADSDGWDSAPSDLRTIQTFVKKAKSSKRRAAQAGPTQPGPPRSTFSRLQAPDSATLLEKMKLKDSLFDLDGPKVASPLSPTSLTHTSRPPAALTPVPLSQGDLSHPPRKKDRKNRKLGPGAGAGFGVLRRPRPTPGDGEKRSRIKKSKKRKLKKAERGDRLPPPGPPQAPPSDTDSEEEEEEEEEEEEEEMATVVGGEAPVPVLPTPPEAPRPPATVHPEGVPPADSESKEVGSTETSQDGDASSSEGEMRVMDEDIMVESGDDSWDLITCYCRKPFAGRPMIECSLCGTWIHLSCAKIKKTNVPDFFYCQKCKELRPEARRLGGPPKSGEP

As to `COc1ccc2c(c1)CCCN2C(=O)CCl` [KB02], the inhibition at 100 µM is 15% at UniProt Q8WV44 (setting [1]), 19% at UniProt Q3KNV8 (setting [1]), 13% at UniProt Q9BUL5 (setting [1]) and 29% on UniProt Q96G25 (setting [2]). The “KB02_500 uM_percent_inhibition” value on UniProt Q3KNV8 (500 uM) came to 57%. In addition, the inhibition at 500 µM at UniProt Q3KNV8 (500 uM, read-out: KB02_500 uM_percent_inhibition) turned out to be 52%; at UniProt O15524 it was 38%; on UniProt Q9Y252, 38%; at UniProt Q86WC4 (read-out: KB02_500 uM_percent_inhibition), 68%. The same molecule registered a percent inhibition on UniProt Q96G25 (100 uM) of 31%.

Turning to `C=CC(=O)N(c1ccccc1)c1ccc(Br)cc1` [KB05], the inhibition at 500 µM on UniProt Q8WV44 (setting [3]) came out at 50%; at UniProt Q3KNV8 (setting [3]), 58%; at UniProt O15524, 56%; on UniProt Q9BUL5 (setting [3]) it was 27%; on UniProt Q96G25 (500 uM, read-out: percent inhibition), 31%; on UniProt Q9Y252, 51%. The inhibition at 500 µM on UniProt Q86WC4 (read-out: KB05_500 uM_percent_inhibition) was determined as 66%. Moreover, the inhibition at 100 µM came out at 14% on UniProt Q3KNV8 (setting [4]), 29% on UniProt Q9BUL5 (setting [4]) and 10% at UniProt Q96G25 (setting [2]). The “KB05_500 uM_percent_inhibition” value turned out to be 50% at UniProt Q3KNV8 (500 uM) and 30% on UniProt Q9BUL5 (500 uM). At UniProt Q96G25 (500 uM), the percent inhibition was found to be 40%.

With `O=C(CCl)Nc1cc(C(F)(F)F)cc(C(F)(F)F)c1` [KBO3], the results for the “KB03_100 uM_percent_inhibition” value on UniProt Q8WV44 (100 uM), at UniProt Q3KNV8 (100 uM) and at UniProt Q9BUL5 (100 uM) were 31%, 6% and 16%, respectively. The percent_inhibition on UniProt O15524 (500 uM) stood at 35%; on UniProt Q9Y252 (500 uM), 9%. This molecule gave a percent inhibition on UniProt Q96G25 (100 uM) of 8%. The “KB03_500 uM_percent_inhibition” value on UniProt Q86WC4 (500 uM) worked out at 58%.

(Values after US20200239530A1, “COMPOUNDS AND METHODS OF MODULATING PROTEIN DEGRADATION” (Vividion Therapeutics, Inc., priority 2017, published 2020).)
